Our source for the AC50 and EC50 values is ChEMBL document CHEMBL1201862, “PubChem BioAssay data set” (2004).

Targets include Cytochrome P450 3A4 (Homo sapiens, UniProt P08684); Cytochrome P450 2C9 (Homo sapiens, UniProt P11712); Cytochrome P450 2D6 (Homo sapiens, UniProt P10635).
A further assay addresses T1, Cytochrome P450 1A2 (Homo sapiens, UniProt P05177).
T1 sequence (P05177 whole entry): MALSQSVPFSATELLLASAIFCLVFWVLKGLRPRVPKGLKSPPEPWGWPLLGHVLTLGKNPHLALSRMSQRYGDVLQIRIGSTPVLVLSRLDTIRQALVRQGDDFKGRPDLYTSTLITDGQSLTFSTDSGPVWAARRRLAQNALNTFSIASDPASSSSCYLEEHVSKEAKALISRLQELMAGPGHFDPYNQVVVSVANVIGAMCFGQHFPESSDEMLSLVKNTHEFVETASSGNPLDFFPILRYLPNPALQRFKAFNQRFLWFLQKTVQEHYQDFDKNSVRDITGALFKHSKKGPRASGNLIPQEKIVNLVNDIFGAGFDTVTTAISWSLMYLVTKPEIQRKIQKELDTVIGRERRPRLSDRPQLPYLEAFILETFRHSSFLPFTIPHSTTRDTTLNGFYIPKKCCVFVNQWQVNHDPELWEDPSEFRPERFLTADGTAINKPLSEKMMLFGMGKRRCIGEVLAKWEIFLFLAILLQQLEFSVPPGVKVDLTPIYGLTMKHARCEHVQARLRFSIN

The subject of assay [1] is Streptococcus sp. 'group A'. As to the kind of experiment: growth inhibition of control SK(-) GAS strain, dose response, counter-screen for streptokinase expression inhibitor project, luminescence, kanamycin, BacTiterGlo, confirmation (AID 1900). Type of assay: functional, organism-based.
In another assay the test system is Streptococcus. The assay is described as follows: Group A Streptococcus viability loss, dose response, counter-screen for streptokinase expression inhibitor project, luminescence, BacTiterGlo (AID 1915).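 Note: potency for reduction of bacterial viability or growth.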 It is filed as functional, organism-based.
A short description of assay [2]: inhibitors of intracellular T. cruzi replication, confirmation, NIH3T3 host cells, beta-gal luminescence (AID 2044).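 Note: intracellular parasites grown in NIH/3T3 mouse fibroblasts as host cells; luminescent beta-galactosidase reporter signal from transgenic T. cruzi replicating inside host cells; inhibitors lower the luminescence signal.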 It is filed as functional, cell-based.
The nature of assay [3]: cytotoxicity toward NIH3T3 fibroblasts, dose response, counter-screen, cell-based, ATP luminescence, mouse fibroblasts (AID 2010).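 Note: cells exposed to compound for about 90 hours before reading.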 Type of assay: functional. Background: The purpose of a counterscreen is to sort out artefacts and off-target activity.
Assay [4] addresses T2, Corticotropin-releasing factor receptor 2/Corticotropin-releasing factor-binding protein (Homo sapiens, UniProt P24387+Q13324).
T2 sequence (Q13324 whole entry): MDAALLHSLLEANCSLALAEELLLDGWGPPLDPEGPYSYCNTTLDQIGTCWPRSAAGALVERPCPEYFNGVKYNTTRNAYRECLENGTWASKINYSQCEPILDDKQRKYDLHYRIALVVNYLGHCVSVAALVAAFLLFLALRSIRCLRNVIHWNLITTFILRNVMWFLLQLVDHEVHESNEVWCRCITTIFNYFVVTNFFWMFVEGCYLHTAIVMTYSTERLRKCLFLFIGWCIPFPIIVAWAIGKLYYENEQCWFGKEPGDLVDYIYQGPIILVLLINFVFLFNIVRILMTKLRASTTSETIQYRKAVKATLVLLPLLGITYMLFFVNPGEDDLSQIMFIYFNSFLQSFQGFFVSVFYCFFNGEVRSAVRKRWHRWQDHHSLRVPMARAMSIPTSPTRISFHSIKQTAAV
T2 sequence (P24387 whole entry): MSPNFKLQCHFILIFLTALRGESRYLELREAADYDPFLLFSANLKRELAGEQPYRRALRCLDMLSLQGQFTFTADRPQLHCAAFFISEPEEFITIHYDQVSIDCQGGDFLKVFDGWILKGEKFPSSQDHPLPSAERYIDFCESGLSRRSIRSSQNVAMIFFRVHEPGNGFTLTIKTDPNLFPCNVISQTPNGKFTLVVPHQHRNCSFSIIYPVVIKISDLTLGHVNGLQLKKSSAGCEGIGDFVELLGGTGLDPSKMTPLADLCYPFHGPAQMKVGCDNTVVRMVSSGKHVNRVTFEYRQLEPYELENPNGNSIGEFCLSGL
The assay is described as follows: activators of CRF receptor 2 with binding protein – uHTS hits, confirmation (AID 602473). Type of assay: functional. Particulars: read-out: EC50_Mean.

Molecules are shown by their SMILES. Where “and” joins values, the source holds several entries; their conditions need not be identical. Identical values can stand only once. Calls of active or inactive are those of the source.

Cytochrome P450 2C9, sequence (P11712 whole entry): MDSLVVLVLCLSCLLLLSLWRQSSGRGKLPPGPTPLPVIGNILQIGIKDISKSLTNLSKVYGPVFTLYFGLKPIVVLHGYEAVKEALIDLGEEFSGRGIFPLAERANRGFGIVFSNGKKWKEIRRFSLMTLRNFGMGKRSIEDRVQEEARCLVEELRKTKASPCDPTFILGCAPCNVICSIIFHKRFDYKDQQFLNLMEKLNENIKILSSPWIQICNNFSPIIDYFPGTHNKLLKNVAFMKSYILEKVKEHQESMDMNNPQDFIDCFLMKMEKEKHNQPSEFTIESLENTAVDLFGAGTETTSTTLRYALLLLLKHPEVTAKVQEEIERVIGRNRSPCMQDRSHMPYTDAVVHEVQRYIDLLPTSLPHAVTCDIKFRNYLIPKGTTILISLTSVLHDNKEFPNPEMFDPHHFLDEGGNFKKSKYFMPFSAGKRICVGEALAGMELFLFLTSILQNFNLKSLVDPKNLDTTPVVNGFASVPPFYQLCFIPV
Cytochrome P450 3A4, sequence (P08684 whole entry): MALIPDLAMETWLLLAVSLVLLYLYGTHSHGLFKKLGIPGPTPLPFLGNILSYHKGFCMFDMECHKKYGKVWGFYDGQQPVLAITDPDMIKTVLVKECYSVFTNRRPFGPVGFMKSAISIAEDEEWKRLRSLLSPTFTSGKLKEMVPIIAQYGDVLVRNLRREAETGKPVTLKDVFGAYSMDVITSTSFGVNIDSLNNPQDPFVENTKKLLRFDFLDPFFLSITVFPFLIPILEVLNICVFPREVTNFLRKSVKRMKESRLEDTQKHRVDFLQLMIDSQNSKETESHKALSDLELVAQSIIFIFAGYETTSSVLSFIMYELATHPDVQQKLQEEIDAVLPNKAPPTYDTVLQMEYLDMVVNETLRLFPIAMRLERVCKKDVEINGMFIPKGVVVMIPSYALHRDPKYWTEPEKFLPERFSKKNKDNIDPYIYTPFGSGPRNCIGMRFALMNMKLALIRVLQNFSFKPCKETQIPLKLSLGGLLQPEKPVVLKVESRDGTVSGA
Cytochrome P450 2D6, sequence (P10635 whole entry): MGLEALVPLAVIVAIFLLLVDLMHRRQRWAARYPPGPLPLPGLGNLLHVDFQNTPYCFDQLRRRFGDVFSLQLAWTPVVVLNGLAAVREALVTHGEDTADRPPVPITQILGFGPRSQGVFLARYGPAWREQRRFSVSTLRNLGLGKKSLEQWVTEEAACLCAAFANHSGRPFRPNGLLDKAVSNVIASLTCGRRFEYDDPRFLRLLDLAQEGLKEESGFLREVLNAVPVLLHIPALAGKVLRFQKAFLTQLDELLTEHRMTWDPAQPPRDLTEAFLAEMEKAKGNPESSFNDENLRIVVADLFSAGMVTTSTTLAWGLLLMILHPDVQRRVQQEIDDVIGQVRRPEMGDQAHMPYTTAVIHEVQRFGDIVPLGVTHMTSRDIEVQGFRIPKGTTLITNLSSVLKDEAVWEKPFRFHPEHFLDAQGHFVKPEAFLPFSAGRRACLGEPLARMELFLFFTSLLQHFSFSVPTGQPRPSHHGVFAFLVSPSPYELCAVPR

For orientation: AC50 means the midpoint of the concentration-response curve, whichever way the signal moves. In the case of `CO/C(O)=C1\C(C)=NC(C)=C([N+](=O)[O-])[C@@H]1c1ccccc1C(F)(F)F`, the AC50 on Cytochrome P450 1A2 is 39.8 µM (inconclusive).
With `CC(C)COP(=O)(OCC(C)C)C(O)c1ccccc1F` (stereo not given), the AC50 at Cytochrome P450 3A4 is 3.98 µM (inconclusive).
On to `Cc1cc(COC(=O)C2N3C(=O)[C@@H](NC(=O)COc4ccccc4)[C@H]3SC2(C)C)on1` (stereo not given in full), for which the EC50 in assay [1] was 0.175 µM (active); in the assay on Streptococcus, 0.384 µM (active).
Take `CCNc1ncc2nc(-c3cc(F)cc(F)c3)c(=O)n(CCC#N)c2n1`: the AC50 on Cytochrome P450 1A2 is 0.794 µM (inconclusive).
As for `COc1ccc2[nH]cc(CCNc3ccnc(-c4ccccc4C)n3)c2c1`, the AC50 at Cytochrome P450 2C9 is 1.26 µM (inconclusive).
Turning to `O=[N+]([O-])c1cc(Cc2cc([N+](=O)[O-])c3cccnc3c2O)c(O)c2ncccc12`, the AC50 at Cytochrome P450 2D6 is 3.98 µM (inconclusive); at Cytochrome P450 2C9, 5.01 µM (inconclusive).
For `CN(C)c1nc2c(c(=O)[nH]c(=O)n2C)n1Cc1ccccc1Br`, the AC50 at Cytochrome P450 2D6 was 25.1 µM (inconclusive); at Cytochrome P450 1A2, 28.2 µM (inconclusive); on Cytochrome P450 2C9 it was 0.0708 µM (inconclusive).
For `CN(Cc1ccco1)c1ncnc2ccc(-c3ccccc3Cl)cc12`, the AC50 at Cytochrome P450 2C9 is 1.58 µM (inconclusive).
Consider `c1ccc2c([C@@H]3CCN(CCN4CCOCC4)C3)c[nH]c2c1`, for which the AC50 on Cytochrome P450 2D6 is 3.98 µM (inconclusive).
For `O=C(CSc1nnc(Cc2cc(O)nc(O)n2)n1-c1ccccc1)N1CCCc2ccccc21`, on Cytochrome P450 3A4, the AC50 is 15.8 µM (inconclusive).
As for `CCO[C@@H]1OC(C(=O)N2CCN(Cc3ccc4c(c3)OCO4)CC2)=C[C@H](C2CCCCC2)[C@H]1CCCO`, the EC50 was 1.01 µM (active) in [2] and > 60 µM (not active) in assay [3].
Regarding `C[C@@H]1C[C@H](C)CN(S(=O)(=O)c2cc(Cl)c(Oc3ccc([N+](=O)[O-])cc3Cl)c(Cl)c2)C1`, the AC50 at Cytochrome P450 2C9 is 6.31 µM (inconclusive).
For the compound `COc1ccc2[nH]c(C)c(CCN(Cc3cccs3)C(S)=Nc3ccccc3OC)c2c1`, the EC50 was 2.08 µM (active) in [2] and > 60 µM (not active) in assay [3].
Take `CCCN1CN=C(S)N(c2cccc(C)c2C)C1`: the AC50 at Cytochrome P450 3A4 was 15.8 µM (inconclusive).
Consider `CC(C(=O)Nc1ccccc1Sc1ccccc1)N(c1ccccc1)S(C)(=O)=O` (stereo not given), for which, at Cytochrome P450 2D6, the AC50 was 25.1 µM (inconclusive).
For `COc1ccc(-c2nc3cnc(N4CCOCC4)nc3n(Cc3cccs3)c2=O)cc1`, on Cytochrome P450 1A2, the AC50 was 2.51 µM (inconclusive).
In the case of `Cc1ccc(NC(=O)C2CCN(c3cnccn3)CC2)cc1C`, the EC50 in [2] was 1.55 µM (active); in [3] it was > 60 µM (not active).
`Cc1nc(O)c2nsc(C(=O)Nc3ccc(N4CCCC(O)C4)cc3)c2n1` (stereo not given): the EC50 in assay [1] is 3.32 µM (active); in the assay with Streptococcus, > 150 µM (not active).
Turning to `COC(=O)[C@@]1(Cc2ccc(OC)cc2)[C@H]2c3cc(C(=O)N(C)C)n(CCc4ccc(OC)c(Br)c4)c3C[C@H]2CN1C(=O)c1ccccc1`, the AC50 on Cytochrome P450 2D6 was 0.0501 µM (inconclusive).
`CCc1ccccc1NC(=O)C(C)n1nc([N+](=O)[O-])c(Br)c1C` (stereo not given): the AC50 at Cytochrome P450 1A2 was 28.2 µM (inconclusive).
As to `CCn1cc(CN2CCCC(C(=O)c3ccc(-c4ccccc4)c(F)c3)C2)cn1` (stereo not given), the EC50 in assay [2] was 0.569 µM (active); in [3], > 60 µM (not active).
Regarding `Cn1c(C(=O)O)c(CC(=O)NCc2cccnc2)c2ccccc21`, the AC50 at Cytochrome P450 1A2 is 10 µM (inconclusive).
Turning to `Cc1ccc(-n2nnnc2SCC(=O)c2cc(C)n(CC3CCCO3)c2C)cc1` (stereo not given), the EC50 was 0.479 µM (active) in assay [2] and > 30 µM (not active) in [3].
With `CCCCn1c(SCc2c(C)noc2C)nc2cc(S(N)(=O)=O)ccc21`, the concentration at half-maximal activity (AC50) at Cytochrome P450 1A2 is 6.31 µM (inconclusive).
Take `C=CCc1cccc(C2Nc3ccccc3C(=O)N2O)c1O` (stereo not given): the AC50 on Cytochrome P450 2D6 was 0.355 µM (inconclusive).
Regarding `Cc1nn(Cc2ccc(Cl)cc2)c(C)c1NC(=O)Cn1nc([N+](=O)[O-])c(Cl)c1C`, the AC50 on Cytochrome P450 3A4 was 1.12 µM (inconclusive).
Consider `O=C(Nc1ncc(Cc2ccccc2Cl)s1)c1ccc(-c2cccc([N+](=O)[O-])c2)o1`, for which the EC50 was 1.57 µM (active) in assay [2] and > 60 µM (inconclusive) in assay [3].
The like results for `O=C(NC(N1CCOCC1)C(Cl)(Cl)Cl)c1cc([N+](=O)[O-])cc([N+](=O)[O-])c1` (stereo not given) were, in that order, 0.9 µM (active) and > 60 µM (not active).
In the case of `CCN1CCN(c2cc(C)c3cc(NC(=O)Cc4ccccc4OC)ccc3n2)CC1`, the EC50 in assay [2] is 1.14 µM (active); in assay [3], > 60 µM (not active).
On to `Clc1ccc(-c2noc(CN3CCCCC3)n2)cc1`, for which the AC50 at Cytochrome P450 2D6 is 3.16 µM (inconclusive).
For the compound `CCCC(=O)Nc1ccc(C(=O)NNC(=S)NC(=O)c2cccs2)cc1`, the AC50 on Cytochrome P450 2D6 was 39.8 µM (inconclusive).
With `Cc1cnc(CNc2nc(-c3ccc(N(C)C)cc3)nc3ccccc23)cn1`, the AC50 on Cytochrome P450 2D6 is 39.8 µM (inconclusive).
Take `CCOC(=O)CN(C(=O)CCC(=O)Nc1cc(C)on1)C(C(=O)NC1CCCC1)c1cccnc1` (stereo not given): the AC50 on Cytochrome P450 2C9 is 17.8 µM (inconclusive).
Take `Cc1cccc(C(CC(=O)N2CCCC2)c2ccccc2)c1O` (stereo not given): on Cytochrome P450 1A2, the AC50 was 15.8 µM (inconclusive).
As to `CC(C)CCc1noc(CN(C)CC2CCN(Cc3ccccc3)CC2)n1`, the EC50 in [2] is 1.47 µM (active); in assay [3], > 60 µM (not active).
As for `COC(=O)c1cc(NC(=O)CC2NC3CCCCC3NC2=O)cc(C(=O)OC)c1` (stereo not given), on Cytochrome P450 2C9, the AC50 is 12.6 µM (inconclusive).
Turning to `O=c1onc(-c2cccs2)n1Cc1ccccc1`, the AC50 on Cytochrome P450 2C9 was 31.6 µM (inconclusive).
Regarding `CCOc1ccc(-n2c(SCC(=O)Nc3ccc(OC)cc3OC)nc3c(c2=O)SCC3)cc1`, the AC50 at Cytochrome P450 3A4 was 15.8 µM (inconclusive).
The same measure, in the same setting: in the case of `COc1cccc(CNc2ccc(F)c(Cl)c2)c1O` it was 35.5 µM (inconclusive).
As for `CCCCCCCCCn1cc(C(C)=O)c(=O)[nH]c1=O`, the AC50 at Cytochrome P450 1A2 was 14.1 µM (inconclusive).
In the case of `Clc1ccccc1-c1ccc2ncnc(NC3CCNCC3)c2c1`, the AC50 is 20 µM (inconclusive) on Cytochrome P450 2D6 and 15.8 µM (inconclusive) on Cytochrome P450 1A2.
With `Nc1nc(Nc2ccccc2)nc2c1ncn2[C@@H]1O[C@@H](CO)[C@H](O)[C@@H]1O`, the AC50 at Cytochrome P450 1A2 is 31.6 µM (inconclusive).
`O=C(Oc1ccccc1)N1CCC2(CCCN(C(c3ccccc3)c3ccccc3)C2)CC1`: on Cytochrome P450 2C9, the AC50 is 2 µM (inconclusive).
As for `O=C(O)c1ccccc1C1c2ccccc2Oc2ccccc21`, the AC50 at Cytochrome P450 2C9 was 3.98 µM (inconclusive).
Regarding `O=C(OC(c1ccccc1)c1nccc2ccccc12)c1cc([N+](=O)[O-])cc([N+](=O)[O-])c1` (stereo not given), the EC50 in assay [2] was 1.01 µM (active); in assay [3] it was > 60 µM (not active).
Turning to `CCCCC[C@H](O)c1cccc(OCc2ccc3ccccc3n2)c1`, the AC50 at Cytochrome P450 2C9 is 31.6 µM (inconclusive).
As to `Nc1nonc1-c1nc2ccccc2n1CC(=O)N/N=C\c1ccc(-c2ccc(Cl)cc2)o1`, the EC50 in assay [1] is 1.02 µM (active); with Streptococcus, 2.38 µM (active).
Consider `CCCCCn1/c(=N/C(=O)c2cccnc2)c(C#N)cc2c(=O)n3cccc(C)c3nc21`, for which the EC50 in [4] was > 53 µM (inactive).
Regarding `CCOC(=O)c1cc2c(=O)n3ccccc3nc2n(C(C)C)/c1=N/C(=O)c1c(-c2c(F)cccc2Cl)noc1C`, the figures for the EC50 in [2] and in assay [3] were 2.18 µM (active) and > 60 µM (inconclusive), respectively.
The matching figures for `Cc1nn(-c2ccccc2)c(N2CCCC2)c1/C=N/NC(=O)c1cc(-c2ccccc2)nc2ccccc12`: 1.96 µM (active) and > 60 µM (not active).
In the case of `c1ccc([C@@H]2CN3CCSC3=N2)cc1` [DEXAMISOLE], the AC50 on Cytochrome P450 2D6 is 31.6 µM (inconclusive) and 10 µM (inconclusive) and 20 µM (inconclusive).
